Laboratory results from patent publication EP4745134A1 (Jiangsu Yahong Meditech Co., Ltd., priority 2023, dated 2025).
pIC50: −log10 of the molar value. Where two headings read alike, the source gives them in different places.

How the values were obtained:
[1] = test system: MTAP-deficient HCT116; test: Pharmacodynamic test in human colon cancer xenograft model (MTAP-deficient HCT116); assay type: in vivo; conditions: 100 mpk, orally by gavage once a day, HCT116 MTAP deficient mice xenograft
Protocol: The compounds (100 mpk, blank vehicle as a control) were orally administered to the HCT116 MTAP deficient mice (cell source: creative biogene-CSC-RT2701) of human colon cancer xenograft model by gavage daily during the experimental planning period. The positive compound AMG9747 was synthesized according to the method reported in the patent WO2021163344A1. The compounds were formulated as follows: weighing 100.00 mg of a test compound, adding it to 10 mL of 0.5% MC4000+0.2% Tween 80, vortexing and shaking to prepare a suspension, i.e., a dose of 100 mpk. Each group had 8 mice and was subjected to administration by gavage once a day. The tumor volume was measured once in groups before administration, and measured on days 3, 6, 10, 13, 16 and 19 respectively after administration. The positive drug (synthesized according to the patent WO2021163344A1) AMG-9747 was used as a control, and compound AMG-9747 has a structure of: [drawing 1174] Table 3. Percentage of inhibition of the compounds of the present invention on tumor growth in the human colon cancer xenograft (MTAP-deficient HCT116) model

[2] = molecular target: PRMT5-MTA (Homo sapiens, UniProt O14744); test: Enzymatic inhibitory activity against PRMT5-MTA (AlphaScreen); assay type: biochemical
Sequence of PRMT5-MTA (O14744 whole entry): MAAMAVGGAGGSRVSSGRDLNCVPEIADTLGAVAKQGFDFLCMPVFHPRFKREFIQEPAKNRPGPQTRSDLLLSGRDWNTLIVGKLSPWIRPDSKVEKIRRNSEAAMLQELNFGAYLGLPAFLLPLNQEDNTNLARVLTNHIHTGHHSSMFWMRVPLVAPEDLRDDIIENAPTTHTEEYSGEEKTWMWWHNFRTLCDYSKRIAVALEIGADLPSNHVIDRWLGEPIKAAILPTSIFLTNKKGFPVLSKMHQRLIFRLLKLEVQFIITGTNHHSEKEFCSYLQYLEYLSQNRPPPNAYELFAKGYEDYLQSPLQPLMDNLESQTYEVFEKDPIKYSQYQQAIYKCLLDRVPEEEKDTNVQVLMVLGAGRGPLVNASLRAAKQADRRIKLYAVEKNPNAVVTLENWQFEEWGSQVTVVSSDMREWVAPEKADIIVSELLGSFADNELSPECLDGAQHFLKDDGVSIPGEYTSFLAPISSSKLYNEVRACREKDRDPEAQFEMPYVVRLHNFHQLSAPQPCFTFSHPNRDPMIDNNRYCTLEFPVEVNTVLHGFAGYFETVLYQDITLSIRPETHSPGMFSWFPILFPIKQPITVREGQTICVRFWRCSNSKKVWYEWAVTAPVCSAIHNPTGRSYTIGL
Sequence of PRMT5-MTA (Q9BQA1 whole entry partner): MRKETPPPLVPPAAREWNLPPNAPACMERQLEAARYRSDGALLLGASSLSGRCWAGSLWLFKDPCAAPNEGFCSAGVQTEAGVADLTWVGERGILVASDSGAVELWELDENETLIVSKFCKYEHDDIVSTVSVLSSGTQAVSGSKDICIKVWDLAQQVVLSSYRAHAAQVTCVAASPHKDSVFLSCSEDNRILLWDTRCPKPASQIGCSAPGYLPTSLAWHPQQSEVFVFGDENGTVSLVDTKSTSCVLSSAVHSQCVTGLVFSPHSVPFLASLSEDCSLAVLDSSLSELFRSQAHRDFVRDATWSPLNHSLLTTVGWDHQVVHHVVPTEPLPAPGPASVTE
Procedure, shortened: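 PRMT5/[…] (1 nM) was preincubated for 30 min at room temperature with 1 µM […] and 2.5 µM SAM, then exposed to compound (10-point, 3-fold from 1000 nM) for 15 min at 23 °C. Histone H4 substrate (5 nM) was added and reacted for 45 min at 23 °C. Symmetric dimethyl-R3 H4 was detected by AlphaScreen and IC50 calculated.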

[3] = test system: HCT116-WT cells; test: Inhibitory activity against cell proliferation (CellTiter Glo, 6 days), HCT116-WT; assay type: cell-based; conditions: 144 h, HCT116-WT cells, 6 days, CellTiter Glo; read-out: HCT116-WT IC50
Procedure, shortened: (§1)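 Following overnight attachment of 250 cells per well in McCoy's 5A medium with 10% FBS, compounds spanning 8 concentrations (4-fold, top 10000 nM) were applied for 6 days. Growth inhibition IC50 was derived from luminescent ATP signal.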

[4] = test system: HCT116 MTAP KO cells; test: Inhibitory activity against cell proliferation (CellTiter Glo, 6 days), HCT116 MTAP KO; assay type: cell-based; conditions: for pIC50: Homo sapiens, HCT-116, 144 h, HCT116 MTAP KO cells, 6 days, CellTiter Glo, read-out: HCT116 MTAP KO IC50; for Selectivity HCT 116-WT/ HCT116 MTAP KO: ratio of IC50 HCT116-WT / HCT116 MTAP KO
Procedure, shortened: as §1

Row | SMILES | Percentage of tumor growth inhibition [1] | pIC50 ([2]; read-out: IC50) | pIC50 [3] | pIC50 [4] | Selectivity HCT 116-WT/ HCT116 MTAP KO [4] | pIC50 [2]
1 | Cc1cc2cc(C(=O)N(Cc3ccc(C(F)(F)F)cn3)[C@H](C)c3ncccn3)ccc2nc1N [AMG-9747, reference compound] | 68% | – | – | – | – | –
2 | Cc1cc2cc(C(=O)N(Cc3ccc(C(F)(F)F)cn3)N(C)c3ncccn3)ccc2nc1N [Example 1, 2-amino-N',3-dimethyl-N'-(pyrimidin-2-yl)-N-((5-(trifluoromethyl)pyridin-2-yl)methyl) quinoline-6-carbohydrazide] | 80% | 9.00 | 6.21 | 7.49 | 19.47 | –
3 | Cc1cc2cc(C(=O)N(Cc3ccc(C(F)(F)F)cn3)N(c3ncccn3)C3CC3)ccc2nc1N [Example 3, 2-amino-N'-cyclopropyl-3-methyl-N'-(pyrimidin-2-yl)-N-((5-(trifluoromethyl)pyridin-2-yl)methyl)quinoline-6-carbohydrazide] | 86% | 8.59 | 6.25 | 7.57 | 21.04 | –
4 | Cc1cc2cc(C(=O)N(Cc3ccc(-c4scnc4C)cn3)N(c3ncccn3)C3CC3)ccc2nc1N [Example 184, 2-amino-N'-cyclopropyl-3-methyl-N-((5-(4-methylthiazol-5-yl)pyridin-2-yl)methyl)-N'-(pyrimidin-2-yl)quinoline-6-carbohydrazide] | 81% | 8.13 | 6.62 | 7.89 | 18.46 | –
5 | Cc1cc2cc(C(=O)N(Cc3ccc(-c4cnn(C(F)(F)F)c4)cn3)N(C)c3ncccn3)ccc2nc1N [Example 189, 2-amino-N',3-dimethyl-N'-(pyrimidin-2-yl)-N-((5-(1-(trifluoromethyl)-1H-pyrazol-4-yl)pyridin-2-yl)methyl)quinoline-6-carbohydrazide] | 93% | 8.77 | 5.64 | 7.26 | 42.00 | –
6 | Cc1cc2nc(N)c3cnn(C)c3c2cc1C(=O)N1CC(C)CN1c1ncc(Br)cc1F (stereo not drawn) [Example 392, (4-amino-1,7-dimethyl-1H-pyrazolo[4,3-c]quinolin-8-yl)(2-(5-bromo-3-fluoropyridin-2-yl)-4-methylpyrazolidin-1-yl)metha none] | 69% | 8.40 | 5.95 | 7.55 | 40.21 | –
7 | Cc1cc2nc(N)c3ccncc3c2cc1C(=O)N1CC(C)CN1c1ncccc1F (stereo not drawn) [Example 502, (5-amino-8-methylbenzo[C] [2,6]naphthyridin-9-yl)(2-(3-fluoropyridin-2-yl)-4-methylpyrazolidin-1-yl)methanone] | – | 8.28 | 5.82 | 6.85 | 10.79 | –
8 | [2H]C([2H])([2H])n1ncc2c(N)nc3cc(C)c(C(=O)N4CC(C)CN4c4ncccc4F)cc3c21 (stereo not drawn) [Example 507, (4-amino-7-methyl-1-(methyl-D3)-1H-pyrazolo[4,3-c]quinolin-8-yl)(2-(3-fluoropyridin-2-yl)-4-methylpyrazolidin-1-yl)methanone] | – | 7.99 | 5.77 | 7.42 | 44.34 | –
9 | Cc1cc2nc(N)c3c(C)nn(C)c3c2cc1C(=O)N1CC(C)CN1c1ncccc1F (stereo not drawn) [Example 509, (4-amino-1,3,7-trimethyl-1H-pyrazolo[4,3-c]quinolin-8-yl)(2-(3-fluoropyridin-2-yl)-4-methylpyrazolidin-1-yl) methanone] | – | 8.37 | < 5.00 | 6.35 | – | –
10 | Cc1cc2nc(N)c3c(c2cc1C(=O)N1CC(C)CN1c1ncccc1F)COC3C (stereo not drawn) [Example 510] | – | – | 5.13 | 6.65 | 33.55 | 8.32
11 | Cc1cc2nc(N)c3c(c2cc1C(=O)N1CC(C)CN1c1ncccc1F)COC3 (stereo not drawn) [Example 512, (4-amino-7-methyl-1,3-dihydrofuro[3,4-c]quinolin-8-yl)(2-(3-fluoropyridin-2-yl)-4-methylpyrazolidin-1-yl)methanone] | – | 8.30 | 5.23 | 6.59 | 22.53 | –
